This passage reports Activity, selectivity ratio and survival results from ChEMBL document CHEMBL4334442, “Effects of Acetylshikonin on the Infection and Replication of Coxsackievirus A16 in Vitro and in Vivo” (J Nat Prod, 2019).

Calls of active or inactive are those of the source. The calls are words filed in the database; no cut-off is given here.

The subject of data set [1] is Coxsackievirus A16. The data set is described as follows: Antiviral activity against Coxsackievirus A16 TA271 infected in RD cells assessed as effect on viral load at replication stage at 0.08 uM/L preincubated for 1 hr followed by replacement of medium containing compound for 5 hrs and measured after 48 hrs post infection by RT-PCR analysis. It is filed as functional, cell-based.

The test system of data set [2] is Coxsackievirus A16. The data set can be described thus: Antiviral activity against Coxsackievirus A16 TA271 infected in ICR mouse assessed as reduction in virus-induced IL-6 level at 2 mg/kg, im after 3 days post infection by ELISA. It is filed as functional, organism-based. For orientation: ELISA stands for enzyme-linked immunosorbent assay.
The nature of data set [3]: Selectivity index, ratio of CC50 for cytotoxicity against human RD cells to EC50 for antiviral activity against Coxsackievirus A16 TA271 infected in human RD cells. Type of data set: toxicity, cell-based. The conditions noted are these: read-out: Ratio CC50/EC50.
In data set [4] the test system is Coxsackievirus A16. The data set can be described thus: Antiviral activity against Coxsackievirus A16 TA271 infected in ICR mouse assessed as mild alveolar fibrosis in hind limb muscle at 2 mg/kg, im after 5 days post infection by H and E staining based histopathological analysis. Type of data set: functional, organism-based.
The test system of data set [5] is Coxsackievirus A16. The data set can be described thus: Antiviral activity against Coxsackievirus A16 TA271 infected in RD cells at replication stage assessed as increase in intracytoplasmic granules at 0.08 uM/L 1 hr post-infection viral inoculum was removed and cells incubated with medium containing compound and measured after 5 hrs by inverted microscopic analysis. Type of data set: functional, cell-based.

Data set [6] concerns Coxsackievirus A16. The data set can be described thus: Antiviral activity against Coxsackievirus A16 TA271 infected in RD cells at replication stage assessed as cell detachment at 0.08 uM/L 1 hr post-infection viral inoculum was removed and cells incubated with medium containing compound and measured after 5 hrs by inverted microscopic analysis. It is filed as functional, cell-based.

The subject of data set [7] is Coxsackievirus A16. The data set is described as follows: Antiviral activity against Coxsackievirus A16 TA271 infected in ICR mouse assessed as mouse survival at 0.08 uM/L preincubated with viral suspension for 2 hrs followed by intramuscular administration and measured on day 7 post infection relative to control. Type of data set: functional. To be noted: Enterovirus A, TA271, im.

Data set [8] relates to Coxsackievirus A16. The data set is described as follows: Antiviral activity against Coxsackievirus A16 TA271 infected in ICR mouse assessed as reduction in viral load in spinal muscle at 2 mg/kg, im after 3 to 5 days post infection by RT-PCR analysis. Type of data set: functional, organism-based.
The next data set concerns Mus musculus. The data set is described as follows: Effect on IFN-gamma level in ICR mouse at 2 mg/kg, administered intramuscularly by ELISA. It is filed as functional, organism-based.
Data set [9] relates to Coxsackievirus A16. The data set can be described thus: Antiviral activity against Coxsackievirus A16 TA271 infected in RD cells at replication stage assessed as appearance of rounded cells at 0.08 uM/L 1 hr post-infection viral inoculum was removed and cells incubated with medium containing compound and measured after 5 hrs by inverted microscopic analysis. Type of data set: functional, cell-based.

Data set [10] relates to Coxsackievirus A16. The data set is described as follows: Antiviral activity against Coxsackievirus A16 TA271 infected in RD cells at preinfection stage assessed as appearance of cell shrinkage at 0.08 uM/L preincubated with cells for 3 hrs followed by viral infection and measured after 1 hr by inverted microscopic analysis. Type of data set: functional, cell-based.
The subject of data set [11] is Coxsackievirus A16. The data set is described as follows: Antiviral activity against Coxsackievirus A16 TA271 infected in ICR mouse assessed as reduction in viral load in lung at 2 mg/kg, im after 3 to 5 days post infection by RT-PCR analysis. It is filed as functional, organism-based.
Data set [12] concerns Coxsackievirus A16. The data set can be described thus: Antiviral activity against Coxsackievirus A16 TA271 infected in ICR mouse assessed as mild alveolar wall thickening in hind limb muscle at 2 mg/kg, im after 5 days post infection by H and E staining based histopathological analysis. It is filed as functional, organism-based.
The subject of data set [13] is Coxsackievirus A16. The data set can be described thus: Antiviral activity against Coxsackievirus A16 TA271 infected in ICR mouse assessed as reduction in lesions in lung at 2 mg/kg, im after 5 days post infection by H and E staining based histopathological analysis. Type of data set: functional, organism-based.

For the compound `CC(=O)OC(CC=C(C)C)C1=CC(=O)c2c(O)ccc(O)c2C1=O` (centres undefined), the outcome in the data set on Coxsackievirus A16 [1], in the data set on Coxsackievirus A16 [5], in the data set on Coxsackievirus A16 [6], in the data set with Mus musculus, with Coxsackievirus A16 [9] and in the data set with Coxsackievirus A16 [10] was inactive. Also, the outcome in the data set on Coxsackievirus A16 [2], in the data set on Coxsackievirus A16 [4], with Coxsackievirus A16 [8], in the data set with Coxsackievirus A16 [11], in the data set with Coxsackievirus A16 [12] and with Coxsackievirus A16 [13] was Active. Further, the selectivity ratio in data set [3] was determined as 235. The survival at 0.08 µM in the data set on Coxsackievirus A16 [7] was 70%.
